Results as given in US11491120B2, “Pharmacological prophylactics against stress-induced affective disorders in females” (The Trustees of Columbia University in the City of New York, priority 2017, dated 2022).
“Also recorded” adds a separate entry of the source.

Assays:
[1] = test system: female 129S6/SvEv mice; assay: Forced swim test (FST), immobility time, after stress; settings: for Immobility in the FST (Day 1 and Day 2) vs saline: drug administered 1 hour after 3-shock CFC stressor; for Prophylactic efficacy against stress-induced depressive-like behavior: single injection 1 week before stressor
[2] = test system: female 129S6/SvEv mice; assay: Elevated plus maze (EPM); type: in vivo, mouse; settings: 10 mg/kg, 1 week prophylactic drug, learned helplessness stress
Protocol: The EPM was administered as previously described (58), with the exception that videos were scored using ANY-maze behavioral tracking software (Stoelting Co., Wood Dale, Ill.).
We have previously shown that prophylactic (R,S)-ketamine attenuates helpless behavior in male mice (18). To validate these findings in females, female mice were administered saline, (R,S)-ketamine, or (2R,6R)-HNK one week prior to LH training (FIG. 4A). Two weeks later, mice were tested for escape latency and for depressive- and anxiety-like behaviors in the FST and elevated plus maze (EPM). CFC was again administered following these behavioral assays.

[3] = Ovariectomized cohort, 1 week prophylactic drug, Forced Swim Test Day 1, Sham mice, K (10), (2R,6R)-HNK (0.025)
[4] = Ovariectomized cohort, 1 week prophylactic drug, Forced Swim Test Day 1, Sham vs OVX, same drug, K (10), (2R,6R)-HNK (0.025)
[5] = Ovariectomized, E2/P4 replacement, 1 week prophylactic drug, Forced Swim Test Day 2, K (10), (2R,6R)-HNK (0.025), FIG. 5F
[6] = Ovariectomized, same drug, hormone Vehicle vs. E2/P4 replacement, 1 week prophylactic drug, Forced Swim Test Day 2, K (10), (2R,6R)-HNK (0.025), FIG. 5F
[7] = Sal vs. K (2.5), Fisher's PLSD, 3 day prophylactic drug/Forced Swim Test Day 1
[8] = Sal vs. K (10), Fisher's PLSD, 1 week prophylactic drug, learned helplessness stress, Forced Swim Test Day 1
[9] = Sal vs. K (10), Fisher's PLSD, 3 day prophylactic drug/Forced Swim Test Day 1
[10] = Sal vs. K (10), Fisher's PLSD, Antidepressant drug/Forced Swim Test Day 2
[11] = Sal vs. K (30), Fisher's PLSD, 3 day prophylactic drug/Forced Swim Test Day 1
[12] = Sham-operated females, 1 week prophylactic drug, Forced Swim Test Day 2, K (10), (2R,6R)-HNK (0.025), FIG. 5C
[13] = female mice, listed as (R, S)-ketamine

Question: For CNC1(c2ccccc2Cl)CCCCC1=O (racemic) [(R,S)-ketamine, (RS)-2-(2-chlorophenyl)-2-(methylamino)cyclohexanone], which “p, Immobility Time (min 1-6), Sham Sal vs Sham drug” value [1, 3] is on record?
Answer: The value was 0.0140.

Question: And the “p, Immobility Time Average (min 3-6), Fisher's PLSD, Sham Sal vs Sham drug” value [1, 3]?
Answer: The value was 0.0114.

Question: What about the “* (significance), Immobility Time Average (min 3-6), Fisher's PLSD, Sham drug vs OVX drug” value [1, 4] of the same compound?
Answer: The value was “* (* p<0.05)”.

Question: And the “p, Immobility Time (min 1-6), Sham drug vs OVX drug” value [1, 4]?
Answer: The value was 0.0533.

Question: And the “p, Immobility Time Average (min 3-6), Fisher's PLSD, Sham drug vs OVX drug” value [1, 4]?
Answer: The value was 0.0233.

Question: And the “p, Fisher's PLSD, Immobility Time Average (min 3-6), OVX Sal vs. OVX drug” value ([1]; Ovariectomized females, 1 week prophylactic drug, Forced Swim Test Day 2, K (10), (2R,6R)-HNK (0.025), FIG. 5C)?
Answer: Its value is 0.7305.

Question: What about the “p, Fisher's PLSD, Immobility Time Average (min 3-6), E2/P4 Sal vs. E2/P4 drug” value [1, 5] of the same compound?
Answer: The value was 0.0196.

Question: And the “significance (*), Fisher's PLSD, Immobility Time Average (min 3-6), E2/P4 Sal vs. E2/P4 drug” value [1, 5]?
Answer: The value was “* (* p<0.05)”.

Question: What about the “p, Fisher's PLSD, Immobility Time Average (min 3-6), Vehicle Sal vs. Vehicle drug” value ([1]; Ovariectomized, hormone Vehicle, 1 week prophylactic drug, Forced Swim Test Day 2, K (10), (2R,6R)-HNK (0.025), FIG. 5F) of the same compound?
Answer: The value was 0.9193.

Question: And the “p, Fisher's PLSD, Immobility Time Average (min 3-6), Vehicle drug vs. E2/P4 drug” value [1, 6]?
Answer: The value was 0.0089.

Question: What about the “significance (*), Fisher's PLSD, Immobility Time Average (min 3-6), Vehicle drug vs. E2/P4 drug” value [1, 6] of the same compound?
Answer: The value was “** (** p<0.01)”.

Question: And the “p, Immobility Time (min 1)” value [1, 7]?
Answer: Its value is 0.9401.

Question: And the “p, Immobility Time (min 2)” value [1, 7]?
Answer: The value was 0.6027.

Question: And the “p, Immobility Time (min 3)” value [1, 7]?
Answer: Its value is 0.5146.

Question: And the “p, Immobility Time (min 4)” value [1, 7]?
Answer: Its value is 0.9632.

Question: What about the “p, Immobility Time (min 5)” value [1, 7] of the same compound?
Answer: The value was 0.6706.

Question: What about the “p, Immobility Time (min 6)” value [1, 7] of the same compound?
Answer: The value was 0.7202.

Question: What about the “p, Immobility Time Average (min 3-6)” value [1, 7] of the same compound?
Answer: The value was 0.6884.

Question: And the “*, Immobility Time (min 1)” value [1, 8]?
Answer: Its value is “*** (*** p<0.0001)”.

Question: What about the “*, Immobility Time (min 2)” value [1, 8] of the same compound?
Answer: The value was “** (** p<0.01)”.

Question: What about the “*, Immobility Time (min 3)” value [1, 8] of the same compound?
Answer: Its value is “** (** p<0.01)”.

Question: What about the “*, Immobility Time (min 4)” value [1, 8] of the same compound?
Answer: The value was “** (** p<0.01)”.

Question: What about the “*, Immobility Time (min 5)” value [1, 8] of the same compound?
Answer: Its value is “** (** p<0.01)”.

Question: And the “*, Immobility Time (min 6)” value [1, 8]?
Answer: The value was “*** (*** p<0.0001)”.

Question: What about the “*, Immobility Time Average (min 1-6)” value [1, 8] of the same compound?
Answer: Its value is “*** (*** p<0.0001)”.

Question: What about the “p, Immobility Time (min 1)” value [1, 8] of the same compound?
Answer: The value was <0.0001.

Question: What about the “p, Immobility Time (min 2)” value [1, 8] of the same compound?
Answer: The value was 0.0002.

Question: And the “p, Immobility Time (min 3)” value [1, 8]?
Answer: Its value is 0.0002.

Question: What about the “p, Immobility Time (min 4)” value [1, 8] of the same compound?
Answer: The value was 0.0090.

Question: What about the “p, Immobility Time (min 5)” value [1, 8] of the same compound?
Answer: Its value is 0.0016.

Question: What about the “p, Immobility Time (min 6)” value [1, 8] of the same compound?
Answer: Its value is 0.0001.

Question: What about the “p, Immobility Time Average (min 1-6)” value [1, 8] of the same compound?
Answer: The value was <0.0001.

Question: What about the “p, Immobility Time (min 1)” value [1, 9] of the same compound?
Answer: Its value is 0.9371.

Question: What about the “p, Immobility Time (min 2)” value [1, 9] of the same compound?
Answer: Its value is 0.5853.

Question: What about the “p, Immobility Time (min 3)” value [1, 9] of the same compound?
Answer: Its value is 0.7490.

Question: And the “p, Immobility Time (min 4)” value [1, 9]?
Answer: The value was 0.6033.

Question: What about the “p, Immobility Time (min 5)” value [1, 9] of the same compound?
Answer: Its value is 0.9482.

Question: What about the “p, Immobility Time (min 6)” value [1, 9] of the same compound?
Answer: The value was 0.9756.

Question: What about the “p, Immobility Time Average (min 3-6)” value [1, 9] of the same compound?
Answer: Its value is 0.9690.

Question: And the “*, Immobility Time (min 1)” value [1, 10]?
Answer: Its value is “* (* p<0.05)”.

Question: What about the “p, Immobility Time (min 1)” value [1, 10] of the same compound?
Answer: The value was 0.0187.

Question: And the “p, Immobility Time (min 1)” value [1, 11]?
Answer: Its value is 0.6395.

Question: What about the “p, Immobility Time (min 2)” value [1, 11] of the same compound?
Answer: The value was 0.9313.

Question: What about the “p, Immobility Time (min 3)” value [1, 11] of the same compound?
Answer: The value was 0.7755.

Question: What about the “p, Immobility Time (min 4)” value [1, 11] of the same compound?
Answer: Its value is 0.5198.

Question: What about the “p, Immobility Time (min 5)” value [1, 11] of the same compound?
Answer: The value was 0.9023.

Question: What about the “p, Immobility Time (min 6)” value [1, 11] of the same compound?
Answer: Its value is 0.5995.

Question: What about the “p, Immobility Time Average (min 3-6)” value [1, 11] of the same compound?
Answer: Its value is 0.8325.

Question: And the “p, Fisher's PLSD, Immobility Time Average (min 3-6), Sham drug vs. OVX drug” value ([1]; Same drug, Sham vs. ovariectomized, 1 week prophylactic drug, Forced Swim Test Day 2, K (10), (2R,6R)-HNK (0.025), FIG. 5C)?
Answer: The value was 0.2375.

Question: What about the “p, Fisher's PLSD, Immobility Time Average (min 3-6), Sham Sal vs. Sham drug” value [1, 12] of the same compound?
Answer: The value was 0.0405.

Question: And the “significance (*), Fisher's PLSD, Immobility Time Average (min 3-6), Sham Sal vs. Sham drug” value [1, 12]?
Answer: The value was “* (* p<0.05)”.

Question: And the “Immobility in the FST (Day 1 and Day 2) vs saline” value ([1]; female mice)?
Answer: The value was “Neither (R,S)-ketamine nor (2R,6R)-HNK significantly affected immobility time”.

Question: And the “Immobility in the FST (Day 1 and Day 2) vs saline” value [1, 13]?
Answer: Its value is “did not reduce immobility levels”.

Question: And the “Prophylactically effective dose in females” value ([1]; female mice, 1 week before stressor)?
Answer: Its value is 10 mg/kg.

Question: What about the “Immobility in the FST vs saline” value ([1]; ovariectomized mice with cyclic E2 and P4 replacement, drug 1 week before CFC, listed as (R, S)-ketamine) of the same compound?
Answer: Its value is “significantly less immobile compared to control saline mice; also recorded: significantly reduced immobility”.

Question: What about the “Prophylactic efficacy against stress-induced depressive-like behavior” value ([1]; female mice) of the same compound?
Answer: Its value is “significantly reduced stress-induced depressive-like behavior; also recorded: significantly decreased stress-induced depressive-like behavior; also recorded: effective prophylactics against a variety of stressors; also recorded: protect against stress-induced depressive-like behavior”.

Question: And the “Prophylactic efficacy against stress-induced depressive-like behavior” value [1, 13]?
Answer: The value was “prophylactic against stress-induced depressive-like behavior”.

Question: And the “* (significance), Sal vs. drug, Fisher's PLSD: Time in Closed Arms Average (min 1-6), Elevated Plus Maze” value [2]?
Answer: The value was “* (* p<0.05)”.

Question: What about the “* (significance), Sal vs. drug, Fisher's PLSD: Time in Open Arms Average (min 1-6), Elevated Plus Maze” value [2] of the same compound?
Answer: The value was “* (* p<0.05)”.

Question: And the “P, Sal vs. drug, Fisher's PLSD: Time in Closed Arms Average (min 1-6), Elevated Plus Maze” value [2]?
Answer: Its value is 0.0186.

Question: And the “P, Sal vs. drug, Fisher's PLSD: Time in Open Arms Average (min 1-6), Elevated Plus Maze” value [2]?
Answer: Its value is 0.0147.
